Like-named read-outs stand apart in the source and are kept apart here.
How the values were obtained:
[1] = target: SHP-2 enzyme (Met1-Leu525) (Homo sapiens (Human), UniProt Q06124); test: SHP2 inhibition enzymatic assay; type: biochemical; conditions: read-out: SHP2wt-IC50
How it was run: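 SHP-2 (Met1-Leu525), 0.5 nM, activated with 500 nM IRS1 bis-phosphopeptide, preincubated 30 min with compounds in HEPES pH 7.2 buffer with 5 mM DTT. 75 μM DiFMUP added for 30 min at room temperature, stopped with bpV; fluorescence read. IC50 from four-parameter logistic fit of % inhibition.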

[2] = test system: ERK phosphorylation in KYSE-520 cells; test: Phospho-ERK cellular assay; type: cell-based; conditions: KYSE-520 cells, 2 h at 37° C., phospho-ERK1/2 (Thr202/Tyr204) TR-FRET, read-out: PERK IC50
How it was run: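 TR-FRET read-out of ERK1/2 Thr202/Tyr204 phosphorylation was taken after overnight antibody incubation at room temperature. Before that, KYSE-520 cells were treated 2 h at 37 °C with compound dilutions and lysed 30 min. Percent inhibition relative to vehicle and cell-free wells was fitted four-parametrically to give IC50.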

[3] = 0.5 nM SHP-2 activated by 500 nM IRS1 peptide, 75 μM DiFMUP substrate

Chain of SHP-2 enzyme (Met1-Leu525) (Q06124 1-525): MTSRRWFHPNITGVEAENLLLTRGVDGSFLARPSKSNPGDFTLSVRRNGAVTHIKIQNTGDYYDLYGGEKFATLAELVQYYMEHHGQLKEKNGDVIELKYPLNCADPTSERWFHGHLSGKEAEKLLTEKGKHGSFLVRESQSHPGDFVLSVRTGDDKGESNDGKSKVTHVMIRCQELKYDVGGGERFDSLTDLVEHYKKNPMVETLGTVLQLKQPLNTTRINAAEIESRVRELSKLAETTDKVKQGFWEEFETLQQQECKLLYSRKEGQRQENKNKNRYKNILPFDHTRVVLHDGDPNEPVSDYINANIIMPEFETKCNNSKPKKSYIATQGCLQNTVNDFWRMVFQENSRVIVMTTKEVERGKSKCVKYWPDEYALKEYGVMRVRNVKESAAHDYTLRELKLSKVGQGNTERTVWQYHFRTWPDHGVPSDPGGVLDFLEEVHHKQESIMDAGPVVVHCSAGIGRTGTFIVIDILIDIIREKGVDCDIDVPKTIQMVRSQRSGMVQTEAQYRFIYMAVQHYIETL

Compound	IC50 [1, 3] [nM]	IC50 [2] [nM]	IC50 ([2]; Homo sapiens, KYSE-520, 2 h) [nM]	IC50 [1] [nM]	IC50 ([2]; Homo sapiens) [nM]
Cc1csc(C2(CN)C3CCN(c4ncc(Sc5ccnc(N)c5Cl)c5nccn45)CC32)n1 (stereo not drawn) [Example 76, 4-((5-(7-(aminomethyl)-7-(4-methylthiazol-2-yl)-3-azabicyclo[4.1.0]heptan-3-yl)imidazo[1,2-c]pyrimidin-8-yl)thio)-3-chloropyridin-2-amine]	–	–	–	< 500	> 5000
Cc1cc([C@@]2(CN)[C@@H]3CCN(c4cnc5c(-c6ccc(OC(F)(F)F)c7ncccc67)n[nH]c5n4)C[C@@H]32)no1 [Example 126, ((1S,6R,7S)-7-(5-methylisoxazol-3-yl)-3-(3-(8-(trifluoromethoxy)quinolin-5-yl)-1H-pyrazolo[3,4-b]pyrazin-6-yl)-3-azabicyclo[4.1.0]heptan-7-yl)methanamine]	< 500	–	< 1000	–	–
Cc1cc([C@@]2(CN)[C@@H]3CCN(c4cnc5c(-c6cnc7cc(C(F)(F)F)ccc7c6)n[nH]c5n4)C[C@@H]32)no1 [Example 152, ((1S,6R,7S)-7-(5-methylisoxazol-3-yl)-3-(3-(7-(trifluoromethyl)quinolin-3-yl)-1H-pyrazolo[3,4-b]pyrazin-6-yl)-3-azabicyclo[4.1.0]heptan-7-yl)methanamine]	< 500	–	< 1000	–	–
Cn1ccc(-c2nccc(-c3n[nH]c4nc(N5CC[C@@H]6[C@H](C5)[C@@]6(CN)c5ccccc5F)cnc34)c2Cl)n1 [Example 265, ((1S,6R,7R)-3-(3-(3-chloro-2-(1-methyl-1H-pyrazol-3-yl)pyridin-4-yl)-1H-pyrazolo[3,4-b]pyrazin-6-yl)-7-(2-fluorophenyl)-3-azabicyclo[4.1.0]heptan-7-yl)methanamine]	< 500	–	< 1000	–	–
COc1cc2ccc(-c3n[nH]c4nc(N5CC[C@@H]6[C@H](C5)[C@@]6(CN)c5ccccc5F)cnc34)cc2nn1 [Example 262, ((1S,6R,7R)-7-(2-fluorophenyl)-3-(3-(3-methoxycinnolin-7-yl)-1H-pyrazolo[3,4-b]pyrazin-6-yl)-3-azabicyclo[4.1.0]heptan-7-yl)methanamine]	< 500	–	< 1000	–	–

Second part, led by results:

IC50 [1, 3] [nM]	IC50 [2] [nM]	IC50 ([2]; Homo sapiens, KYSE-520, 2 h) [nM]	Compound	IC50 [1] [nM]	IC50 ([2]; Homo sapiens) [nM]
> 3000	> 5000	–	Cc1nc(N2CC[C@@H]3[C@H](C2)[C@@]3(CN)c2cc(F)ccc2F)cc(=O)n1-c1cccc(Cl)c1Cl [Example 411, 6-((1S,6R,7R)-7-(aminomethyl)-7-(2,5-difluorophenyl)-3-azabicyclo[4.1.0]heptan-3-yl)-3-(2,3-dichlorophenyl)-2-methylpyrimidin-4(3H)-one]	–	–
< 500	–	< 1000	Cc1csc([C@@]2(CN)[C@@H]3CN(c4nc5[nH]nc(-c6ccc7nc(C)sc7c6Cl)c5c(=O)n4C)C[C@@H]32)n1 [Example 469, 6-((1R,5S,6r)-6-(aminomethyl)-6-(4-methylthiazol-2-yl)-3-azabicyclo[3.1.0]hexan-3-yl)-3-(7-chloro-2-methylbenzo[d]thiazol-6-yl)-5-methyl-1,5-dihydro-4H-pyrazolo[3,4-d]pyrimidin-4-one]	–	–
< 500	–	< 1000	NC[C@]1(c2ccccc2)[C@@H]2CN(c3cnc4c(-c5ccc(F)c6ncccc56)n[nH]c4n3)C[C@@H]21 [Example 510, ((1R,5S,6s)-3-(3-(8-fluoroquinolin-5-yl)-1H-pyrazolo[3,4-b]pyrazin-6-yl)-6-phenyl-3-azabicyclo[3.1.0]hexan-6-yl)methanamine]	–	–
< 500	–	< 1000	Cn1cc2c(Cl)c(-c3n[nH]c4nc(N5CC[C@@H]6[C@H](C5)[C@@]6(CN)c5cc(F)ccc5F)cnc34)ccc2n1 [Example 369, ((1S,6R,7R)-3-(3-(4-chloro-2-methyl-2H-indazol-5-yl)-1H-pyrazolo[3,4-b]pyrazin-6-yl)-7-(2,5-difluorophenyl)-3-azabicyclo[4.1.0]heptan-7-yl)methanamine]	–	–

— patent US20240109900A1, “AZABICYCLIC SHP2 INHIBITORS” (IRBM S.P.A., priority 2021, published 2024)
